Values of other authors in patent US8067011B2, “Compositions and methods for treating B-cell malignancies” (Chimeros, Inc., priority 2006, dated 2011).

Key:
[1] = tested on: relapsed or refractory, low-grade or follicular, CD20-positive, B-cell non-Hodgkin's lymphoma; conditions: low-grade or follicular NHL
[2] = tested on: diffuse large B-cell, CD20-positive, non-Hodgkin's lymphoma; conditions: added to CHOP or other anthracycline-based chemotherapy, first-line DLBCL

Rituxan: naked antibody that specifically binds to CD20, used for B cell-derived lymphomas and leukemias
median duration of response, defined as progression free survival [1]: about 1 year
response rate [1]: about 50%
extension of progression free survival over chemotherapy alone [2]: about 1.5 years
